Assay results as given in US6673800B2, “4,5,-dihydroisoxazolylakylpiperazine derivatives having selective biological activity at dopamine D3 or D4 receptor, and preparation thereof” (Korea Institute of Science and Technology, priority 2000, dated 2004).

These molecules were tested against cloned human dopamine receptors D1 (Homo sapiens, UniProt P21728) (assay: Binding affinity to dopamine receptor, radiolabeled ligand displacement (D1)).
Design: dose or concentration left out as unconfirmed
Method: (§1) Binding affinities of the compounds for dopamine receptors were determined indirectly by their ability to displace radiolabeled ligand from cloned human dopamine receptors. Compounds were incubated in receptor suspension to compete with the. radiolabeled ligand. The receptor-bound radiolabeled ligand was separated by filtering through Wallac glass fiber filtermat (GF/C) using Inotech cell harvester of 96-well format. The radioactivity bound to filter was counted by Micro-β counter (Wallac).
(§2) The aliquots of cloned human dopamine receptors stored at −70° C. were suspended in assay buffer and the content of receptor in each aliquot was determined by Bio-Rad DC protein assay kit to give an optimal protein (receptor) concentration obtained by preliminary receptor binding assay. Receptor suspension adjusted to optimal concentration was aliquoted in proper volume for assay and stored at −70° C. Binding assays of every compound were performed in duplicate and each different buffer solution was used for optimal assay with each subtype of dopamine receptors. Receptor binding assays were carried out in 96-well plates. Receptor suspension of 100 μl was incubated at 27° C. for 30-60 min in a final volume of 0.25 ml reaction mixture containing 50 μl of hot-ligand and 10 μl of test compound.
(§3) After incubation, the reaction mixture was washed with ice-cold 50 mM Tris-acetate buffer by rapid filtration using a Inotech cell harvester (Inotech, Switzerland) through Whatman GF/C glass fiber filter presoaked in the assay buffer. The filter was covered with MeltiLex, sealed in a sample bag followed by drying in the microwave, and counted by MicroBeta Plus(Wallac, Finland) at a counting efficiency of 30-40%.

Chain of cloned human dopamine receptors D1 (P21728 whole entry): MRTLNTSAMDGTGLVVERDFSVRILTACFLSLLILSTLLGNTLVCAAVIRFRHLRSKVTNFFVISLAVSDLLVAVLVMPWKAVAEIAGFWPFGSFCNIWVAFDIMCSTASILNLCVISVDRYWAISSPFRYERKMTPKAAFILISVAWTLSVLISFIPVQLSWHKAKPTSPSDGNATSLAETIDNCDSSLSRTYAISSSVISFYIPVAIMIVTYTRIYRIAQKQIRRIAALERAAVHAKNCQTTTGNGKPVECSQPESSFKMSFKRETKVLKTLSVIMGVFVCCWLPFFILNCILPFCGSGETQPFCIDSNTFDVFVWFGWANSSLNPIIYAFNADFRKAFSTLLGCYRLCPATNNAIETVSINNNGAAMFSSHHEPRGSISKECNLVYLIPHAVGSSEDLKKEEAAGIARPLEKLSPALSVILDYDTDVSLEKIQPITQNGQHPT

Row | Structure (SMILES) | Affinity to Dopamine Receptors (% Inhibition) D1
1 | CCOc1ccccc1N1CCN(CCCC2CC(c3ccc(OC)c(OC)c3)=NO2)CC1 (racemic) [Compound No. 29] | 40.1%
2 | CCOc1ccccc1N1CCN(CCCC2CC(c3cccs3)=NO2)CC1 (racemic) [Compound No. 30] | 57.8%
3 | COc1ccccc1N1CCN(CCCCC2CC(c3ccccc3)=NO2)CC1 (racemic) [Compound No. 34] | 23.6%
4 | COc1ccc(C2=NOC(CCCN3CCN(c4ccccc4)CC3)C2)cc1OC (stereo not shown) [Compound No. 7] | 9.0%
5 | COc1ccc(C2=NOC(CCCN3CCN(c4ccccc4OC)CC3)C2)cc1OC (stereo not shown) [Compound No. 9] | 19.6%
6 | COc1ccccc1N1CCN(CCCC2CC(c3cccs3)=NO2)CC1 (stereo not shown) [Compound No. 10] | 19.9%

The molecules below were run against cloned human dopamine receptors D2 (Homo sapiens, UniProt P14416) (assay: Binding affinity to dopamine receptor, radiolabeled ligand displacement (D2)).
Design: Affinity to Dopamine Receptors (% Inhibition) D2: dose or concentration left out as unconfirmed
Method: as §1, §2, §3

Chain of cloned human dopamine receptors D2 (P14416 whole entry): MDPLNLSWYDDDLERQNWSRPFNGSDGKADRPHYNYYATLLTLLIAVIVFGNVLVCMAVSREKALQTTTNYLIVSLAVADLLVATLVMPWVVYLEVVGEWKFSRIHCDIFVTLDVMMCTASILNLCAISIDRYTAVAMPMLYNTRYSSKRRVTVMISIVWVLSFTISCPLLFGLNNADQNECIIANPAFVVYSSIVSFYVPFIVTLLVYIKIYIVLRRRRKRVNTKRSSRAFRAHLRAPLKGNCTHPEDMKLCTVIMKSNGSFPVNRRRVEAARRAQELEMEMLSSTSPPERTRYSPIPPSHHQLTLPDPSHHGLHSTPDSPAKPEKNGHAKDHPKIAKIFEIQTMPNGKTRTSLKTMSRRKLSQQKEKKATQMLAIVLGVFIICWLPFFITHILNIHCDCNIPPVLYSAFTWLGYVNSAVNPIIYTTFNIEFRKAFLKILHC

Row | Structure (SMILES) | Affinity to Dopamine Receptors (% Inhibition) D2 | IC50
7 | CCOc1ccccc1N1CCN(CCCC2CC(c3ccc(OC)c(OC)c3)=NO2)CC1 (racemic) [Compound No. 29] | 83.5% | 110 nM
8 | CCOc1ccccc1N1CCN(CCCC2CC(c3cccs3)=NO2)CC1 (racemic) [Compound No. 30] | 88.2% | 470 nM
9 | COc1ccccc1N1CCN(CCCCC2CC(c3ccccc3)=NO2)CC1 (racemic) [Compound No. 34] | 58.3% | 
10 | COc1ccc(C2=NOC(CCCN3CCN(c4ccccc4)CC3)C2)cc1OC (stereo not shown) [Compound No. 7] | 49.0% | 9230 nM
11 | COc1ccc(C2=NOC(CCCN3CCN(c4ccccc4OC)CC3)C2)cc1OC (stereo not shown) [Compound No. 9] | 57.7% | 1440 nM
12 | COc1ccccc1N1CCN(CCCC2CC(c3cccs3)=NO2)CC1 (stereo not shown) [Compound No. 10] | 56.0% | 1930 nM

The molecules below were run against cloned human dopamine receptors D3 (Homo sapiens, UniProt P35462) (assay: Binding affinity to dopamine receptor, radiolabeled ligand displacement (D3)).
Design: Affinity to Dopamine Receptors (% Inhibition) D3: dose or concentration left out as unconfirmed
Method: as §1, §2, §3

Chain of cloned human dopamine receptors D3 (P35462 whole entry): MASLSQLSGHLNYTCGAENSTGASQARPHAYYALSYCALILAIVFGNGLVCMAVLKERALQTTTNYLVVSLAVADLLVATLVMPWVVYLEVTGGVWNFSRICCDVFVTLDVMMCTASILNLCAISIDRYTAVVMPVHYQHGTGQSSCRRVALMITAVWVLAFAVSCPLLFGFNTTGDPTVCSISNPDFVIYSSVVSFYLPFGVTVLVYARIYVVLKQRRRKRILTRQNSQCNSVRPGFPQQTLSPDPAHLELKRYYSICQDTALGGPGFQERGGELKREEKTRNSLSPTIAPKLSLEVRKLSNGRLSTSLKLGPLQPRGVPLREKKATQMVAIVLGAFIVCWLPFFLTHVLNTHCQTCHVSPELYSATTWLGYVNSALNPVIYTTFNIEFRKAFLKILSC

Row | Structure (SMILES) | Affinity to Dopamine Receptors (% Inhibition) D3 | IC50
13 | CCOc1ccccc1N1CCN(CCCC2CC(c3cccs3)=NO2)CC1 (racemic) [Compound No. 30] | 101.2% | 4 nM
14 | COc1ccccc1N1CCN(CCCCC2CC(c3ccccc3)=NO2)CC1 (racemic) [Compound No. 34] | 83.8% | 
15 | COc1ccc(C2=NOC(CCCN3CCN(c4ccccc4)CC3)C2)cc1OC (stereo not shown) [Compound No. 7] | 102.5% | 21 nM
16 | COc1ccc(C2=NOC(CCCN3CCN(c4ccccc4OC)CC3)C2)cc1OC (stereo not shown) [Compound No. 9] | 101.2% | 5 nM
17 | COc1ccccc1N1CCN(CCCC2CC(c3cccs3)=NO2)CC1 (stereo not shown) [Compound No. 10] | 99.9% | 19 nM

The molecules below were run against T1, cloned human dopamine receptors D4 (Homo sapiens, UniProt P21917) (assay: Binding affinity to dopamine receptor, radiolabeled ligand displacement (D4)).
T1 sequence (P21917 1-419): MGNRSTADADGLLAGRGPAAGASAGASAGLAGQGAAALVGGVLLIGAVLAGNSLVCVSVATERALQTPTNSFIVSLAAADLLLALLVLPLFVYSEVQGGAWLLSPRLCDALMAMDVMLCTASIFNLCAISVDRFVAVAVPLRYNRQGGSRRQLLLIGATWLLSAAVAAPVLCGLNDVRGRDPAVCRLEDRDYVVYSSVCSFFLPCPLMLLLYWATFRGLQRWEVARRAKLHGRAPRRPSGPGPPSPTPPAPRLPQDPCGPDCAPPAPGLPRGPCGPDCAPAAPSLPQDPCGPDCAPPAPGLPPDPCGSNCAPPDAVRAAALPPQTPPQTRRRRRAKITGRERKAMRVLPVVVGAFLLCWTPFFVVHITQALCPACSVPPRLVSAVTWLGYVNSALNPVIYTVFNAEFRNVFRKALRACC
Design: Affinity to Dopamine Receptors (% Inhibition) D4: dose or concentration left out as unconfirmed
Method: as §1, §2, §3

Row | Structure (SMILES) | Affinity to Dopamine Receptors (% Inhibition) D4 | IC50
18 | CCOc1ccccc1N1CCN(CCCC2CC(c3ccc(OC)c(OC)c3)=NO2)CC1 (racemic) [Compound No. 29] | 57.4% | 108 nM
19 | CCOc1ccccc1N1CCN(CCCC2CC(c3cccs3)=NO2)CC1 (racemic) [Compound No. 30] | 102.3% | 11 nM
20 | COc1ccccc1N1CCN(CCCCC2CC(c3ccccc3)=NO2)CC1 (racemic) [Compound No. 34] | 100.1% | 
21 | COc1ccc(C2=NOC(CCCN3CCN(c4ccccc4)CC3)C2)cc1OC (stereo not shown) [Compound No. 7] | 103.9% | 71 nM
22 | COc1ccc(C2=NOC(CCCN3CCN(c4ccccc4OC)CC3)C2)cc1OC (stereo not shown) [Compound No. 9] | 104.4% | 23 nM
23 | COc1ccccc1N1CCN(CCCC2CC(c3cccs3)=NO2)CC1 (stereo not shown) [Compound No. 10] | 103.6% | 34 nM
